Marks after values point to notes of the source that are not given here.
Assays:
MelJuso melanoma = experiment: In vivo growth of MelJuso melanoma xenografts in nu/nu mice; set-up: species or system human
[1] = system: LNCaP prostate adenocarcinoma; experiment: In vivo growth of LNCaP prostate cancer xenografts; set-up: species or system human; settings: day 49
[2] = system: MDA-MB-231 cells isolated from tumor-bearing mice; experiment: Chemosensitization of cultured MDA-MB-231 cells isolated from xenografts; type: cell-based, human; settings: 72 h-cultured, PL 0.1 μM, Chemo 0.25 μM PAC.PBP, Pter = in vivo pretreatment
Experimental: FIGS. 18-25. Effect of piperlongumine and I-BET762, as GSH depleting and chemosensitizing agents, in in vitro growing human melanoma, pancreatic, breast, lung, liver, prostate, ovarian, and colorectal cancer cells. Cancer cells, isolated from Pter-treated tumor-bearing mice, were cultured as indicated under Methods. Chemotherapy (0.25 μM PAC.PBP in A2058 melanoma and MDA-MB-231 breast carcinoma cells; 0.125 μM PAC.PBP and 25 μM GTB in AsPC-1 pancreatic cancer cells; 1 μM VRB and 15 μM cisPt in A459 lung carcinoma cells; 0.15 μM DXR in HepG2 hepatocellular carcinoma cells; 15 nM DCT in PC-3 prostate carcinoma cells; 0.15 μM PAC.PBP and 25 μM CarboPt in SK-OV-3 ovarian carcinoma cells; 3 μM 5-FU, 1 μM FA and 0.6 μM IRI in HT-29 colorectal carcinoma cells) was added to the cultured flasks 24 h after seeding. […]
Human A2058, MeWo and MelJuso melanoma cells, and mouse AtT-20 pituitary corticotroph tumor cells were from the American Type Culture Collection (ATCC). […] Cell numbers were determined using a Coulter Counter (Coulter Electronic Inc., Miami, Fla.). […] Cellular viability was assessed as previously reported (Mena, S. et al. Clin Cancer Res 13, 2658-2666 (2007)), by measuring trypan blue exclusion and leakage of lactate dehydrogenase activity. […]

COc1cc(/C=C/c2ccc(O)cc2)cc(OC)c1 [Pter, trans-3,5-dimethoxy-4′-hydroxystilbene]
inhibition of tumor growth (MelJuso melanoma; MelJuso, day 42, 30 mg Pter/kg i.v. every 48 h, vs controls): ~49% | Tumor vol. (MelJuso melanoma; MelJuso-RFP, 35 days after inoculation, Pter 30 mg/kg i.v. every 48 h and/or CRC infusion 0.3 μg/h): 145 ± 35* mm^3 | Tumor vol. [1]: 757 ± 194 mm^3 | Viable cells [2]: 966 ± 177 ×10^6

— US11179348B2, “Combination comprising pterostilbene for the treatment of cancer” (FUNDACIÓN UNIVERSIDAD CATÓLICA DE VALENCIA SAN VICENTE …, priority 2015, dated 2021)
